Experimental data: patent US7038021B2, “Anti-dioxins monoclonal antibody suitable for assaying dioxins in environment and hybridoma producing the same” (priority 2004, dated 2006)
≈ marks a conversion by molar mass, not a printed value.

Legend:
[1] = tested on: monoclonal antibody Dx02-I-0; assay: Cross-reactivity of monoclonal antibody Dx02-I-0 by indirect competitive assay (ELISA, II-1 immobilized); type: binding, mouse; settings: for IC50: indirect competitive assay, immobilized II-1, 20% DMSO and 0.01% Triton-X100, room temperature 10 to 30 minutes; for Cross-reactivity: obtained from IC50 values, 1,2,3,7,8-PeCDF = 100; for reactivity (cross-reactivity) of the antibody: assuming the reactivity with 1,2,3,7,8-PeCDF is 100%
Procedure: According to the method used for determination of the antibody titer, antigen II-1 or II-2 was immobilized onto wells of a microtiter plate and the wells were washed. A solution (300 μl) of Block Ace 4-fold diluted with deionized water was then added to the wells, and the wells were blocked by allowing it to stand at room temperature for 2 hours. The wells were washed three times with the washing solution (300 μl). The supernatant (25 μl) of the culture containing a primary antibody as well as a solution (25 μl) of various concentrations of a phenoxathiin derivative (I-1 or I-2), which is a compound for screening having a structure similar to that of dioxins and having a reduced toxicity, in 20% DMSO and 0.01% Triton-X100, or a solution (25 μl) of various concentrations of dioxins in 20% DMSO and 0.01% Triton-X100, or a solution (25 μl) containing neither the phenoxathiin derivatives nor the dioxins in 20% DMSO and 0.01% Triton-X100 which serves as a control were then added to the wells and mixed in the wells. The wells were allowed to stand at room temperature for 10 to 30 minutes to effect an antigen-antibody reaction.
The wells were washed three times with the washing solution (300 μl). Then, in order to detect the primary antibody which was bound to II-1 or II-2 immobilized onto the plate, a solution (50 μl) of a horseradish peroxidase-labeled anti-mouse IgG (recognizing γ-chain) prepared by 3000-fold diluting with a solution of Block Ace 10-fold diluted with deionized water was added to the wells as a solution of a secondary antibody, and reacted at room temperature for one our. After the wells were again washed three times with the washing solution (300 μl), a TMB solution was added to the wells, and a coloration reaction was effected at room temperature. After 5 to 15 minutes, the reaction was terminated by adding 1 M phosphoric acid (50 μl), and the absorbance at 450 nm was immediately measured using a microplate reader. The ratio (B/B0) of an absorbance value (B) in the well to which one of phenoxathiin derivatives or dioxins was added, to an absorbance value (control OD; B0) in the well to which only a solution of 20% DMSO and 0.01% Triton-X100 was added but neither the phenoxathiin derivatives nor the dioxins were added, was calculated to evaluate the reactivity of the primary antibody. A hybridoma in the well in which a continuously high production of an antibody having a high binding activity against the antigens was recognized was selected, expanded, and cloned by a limiting dilution method.
Using monoclonal antibody Dx02-I-0, the cross-reactivity with 17 kinds of dioxins each having a toxicity value and 12 kinds of coplanar PCBs was evaluated by an indirect competitive assay. II-1 (50 μl) was added to wells in a microtiter plate, and the wells were allowed to stand at room temperature for one hour and then washed. After the wells were blocked, various concentrations of one of dioxins (25 μl) dissolved in 20% DMSO and 0.01% Triton-X100 or a solution (25 μl) of 20% DMSO and 0.01% Triton-X100 not containing any dioxin which serves as a control as well as a solution (25 μl) of the antibody diluted with 0.01 to 0.1% BSA were added to the wells in the plate, and reacted at room temperature for 10 to 30 minutes.
Then, a coloration reaction was effected using a secondary antibody against the antibody bound to the solid phase, i.e. a peroxidase-labeled anti-mouse IgG antibody (recognizing γ-chain) as well as TMB. After the enzyme reaction was terminated, the absorbance at 450 nm was immediately measured. The B/B0 values were plotted for various dioxins, IC50 values were calculated from the resulting figures, and the cross-reactivity of the antibody was obtained from these values (Table 3).

[2] = WHO-TEF, toxicity of 2,3,7,8-TCDD taken as 1; cited from earlier work
[3] = tested on: antibody of non-patent reference 2; settings: assuming the reactivity with 1,2,3,7,8-PeCDF is 100%; cited from earlier work
[4] = tested on: monoclonal antibody Dx02-I-0; assay: Standard curve by indirect competitive assay, inhibition by 2,3,4,7,8-PeCDF; type: binding, mouse; settings: purified antibody Dx02-I-0, immobilized II-1, FIG. 1
Procedure: II-1 was immobilized onto a microtiter plate at room temperature for one hour, and the plate was washed three Limes with the washing solution (300 μl). A solution (300 μl) of Block Ace prepared by 4-fold diluting with deionized water was then added to the wells, and the wells were blocked at room temperature for 2 hours. The wells were washed three times with the washing solution. […]
The wells were then washed, and a secondary antibody, i.e. a solution (50 μl) of a horseradish peroxidase-labeled anti-mouse IgG (recognizing γ-chain) prepared by 3000-fold diluting with a solution of Block Ace 10-fold diluted with deionized water was added to the wells, and reacted at room temperature for one hour. […] After 5 to 15 minutes, the reaction was terminated by adding 1 M phosphoric acid (50 μl), and the absorbance at 450 nm was immediately measured using a microplate reader. The ratio (B/B0) of an absorbance value (B) in the well to which one of dioxins was added, to control OD (B0) was calculated, and the calculated values were plotted against the concentrations of the added dioxin with single logarithm to obtain a typical sigmoid curve (FIG. 1).

Clc1cc2c(c(Cl)c1Cl)Oc1c(Cl)c(Cl)c(Cl)c(Cl)c1O2 [1,2,3,4,6,7,8-HpCDD]
IC50 [1]: >0.1 µg/mL | Cross-reactivity [1]: <1 | TEF [2]: 0.01

Clc1cc(-c2ccc(Cl)c(Cl)c2Cl)cc(Cl)c1Cl [2,3,3′,4,4′,5′-HxCB]
IC50 [1]: >0.1 µg/mL | Cross-reactivity [1]: <1 | TEF [2]: 0.0005

Clc1c(Cl)c(Cl)c2c(oc3c(Cl)c(Cl)c(Cl)c(Cl)c32)c1Cl [OCDF]
IC50 [1]: >0.1 µg/mL | Cross-reactivity [1]: <1 | TEF [2]: 0.0001

Clc1c(Cl)c(Cl)c2c(c1Cl)Oc1c(Cl)c(Cl)c(Cl)c(Cl)c1O2 [OCDD]
IC50 [1]: >0.1 µg/mL | Cross-reactivity [1]: <1 | TEF [2]: 0.0001

Clc1ccc(-c2cc(Cl)c(Cl)c(Cl)c2)cc1Cl [3,3′,4,4′,5-PeCB]
IC50 [1]: 0.0537 µg/mL (≈ 0.165 µM) | Cross-reactivity [1]: 2 | TEF [2]: 0.1

Clc1ccc(-c2cc(Cl)c(Cl)c(Cl)c2Cl)cc1Cl [2,3,3′,4,4′,5-HxCB]
IC50 [1]: >0.1 µg/mL | Cross-reactivity [1]: <1 | TEF [2]: 0.0005

Clc1cc(-c2cc(Cl)c(Cl)c(Cl)c2)cc(Cl)c1Cl [3,3′,4,4′,5,5′-HxCB]
IC50 [1]: 0.0629 µg/mL (≈ 0.174 µM) | Cross-reactivity [1]: 1 | TEF [2]: 0.01

Clc1cc2oc3cc(Cl)c(Cl)c(Cl)c3c2c(Cl)c1Cl [1,2,3,7,8,9-HxCDF]
IC50 [1]: 0.0355 µg/mL (≈ 0.0947 µM) | Cross-reactivity [1]: 3 | Cross-reactivity [3]: 42.7% | TEF [2]: 0.1

Clc1cc2c(cc1Cl)Oc1cc(Cl)c(Cl)cc1O2 [2,3,7,8-TeCDD, 2,3,7,8-tetrachlorodibenzo-p-dioxin]
reactivity (cross-reactivity) of the antibody [1]: 13% | IC50 [1]: 0.0072 µg/mL (≈ 0.0224 µM) | Cross-reactivity [1]: 13 | TEF [2]: 1

Clc1ccc(-c2ccc(Cl)c(Cl)c2)cc1Cl [3,3′,4,4′-TeCB]
IC50 [1]: >0.1 µg/mL | Cross-reactivity [1]: <1 | TEF [2]: 0.0001

Clc1ccc(-c2cc(Cl)c(Cl)cc2Cl)cc1Cl [2,3′,4,4′,5-PeCB]
IC50 [1]: >0.1 µg/mL | Cross-reactivity [1]: <1 | TEF [2]: 0.0001

Clc1ccc(-c2ccc(Cl)c(Cl)c2Cl)cc1Cl [2,3,3′,4,4′-PeCB]
IC50 [1]: >0.1 µg/mL | Cross-reactivity [1]: <1 | TEF [2]: 0.0001

Clc1cc2c(oc3c(Cl)c(Cl)c(Cl)cc32)c(Cl)c1Cl [2,3,4,6,7,8-HxCDF]
reactivity (cross-reactivity) of the antibody [1]: 93% | IC50 [1]: 0.000989 µg/mL (≈ 0.00264 µM) | Cross-reactivity [1]: 93 | Cross-reactivity [3]: 43.8% | TEF [2]: 0.1

Clc1cc(Cl)c(-c2cc(Cl)c(Cl)c(Cl)c2)cc1Cl [2,3′,4,4′,5,5′-HxCB]
IC50 [1]: >0.1 µg/mL | Cross-reactivity [1]: <1 | TEF [2]: 0.00001

Clc1cc2oc3c(Cl)c(Cl)c(Cl)c(Cl)c3c2cc1Cl [1,2,3,4,7,8-HxCDF]
IC50 [1]: >0.1 µg/mL | Cross-reactivity [1]: <1 | Cross-reactivity [3]: 45.9% | TEF [2]: 0.1

Clc1ccc(-c2cc(Cl)c(Cl)c(Cl)c2)cc1 [3,4,4′,5-TeCB]
IC50 [1]: >0.1 µg/mL | Cross-reactivity [1]: <1 | TEF [2]: 0.0001

Clc1ccc(-c2cc(Cl)c(Cl)c(Cl)c2Cl)cc1 [2,3,4,4′,5-PeCB]
IC50 [1]: >0.1 µg/mL | Cross-reactivity [1]: <1 | TEF [2]: 0.0005

Clc1cc2c(cc1Cl)Oc1c(cc(Cl)c(Cl)c1Cl)O2 [1,2,3,7,8-PeCDD]
IC50 [1]: 0.0296 µg/mL (≈ 0.083 µM) | Cross-reactivity [1]: 3 | TEF [2]: 1

Clc1cc2c(c(Cl)c1Cl)Oc1c(cc(Cl)c(Cl)c1Cl)O2 [1,2,3,7,8,9-HxCDD]
reactivity (cross-reactivity) of the antibody [1]: 86% | IC50 [1]: 0.00106 µg/mL (≈ 0.00271 µM) | Cross-reactivity [1]: 86 | Cross-reactivity [3]: 39.8% | TEF [2]: 0.1

Clc1cc2oc3cc(Cl)c(Cl)c(Cl)c3c2cc1Cl [1,2,3,7,8-PeCDF]
IC50 [1]: 0.000915 µg/mL (≈ 0.00269 µM) | Cross-reactivity [1]: 100 | TEF [2]: 0.05

Clc1cc2oc3c(Cl)c(Cl)c(Cl)cc3c2cc1Cl [2,3,4,7,8-PeCDF, 2,3,4,7,8-pentachlorodibenzofuran]
reactivity (cross-reactivity) of the antibody [1]: 16% | IC50 [1]: 0.00586 µg/mL (≈ 0.0172 µM) | Cross-reactivity [1]: 16 | detectable concentration in the assay system [4]: ≤ 1 ng/mL

Clc1cc2c(cc1Cl)Oc1c(Cl)c(Cl)c(Cl)c(Cl)c1O2 [1,2,3,4,7,8-HxCDD]
IC50 [1]: >0.1 µg/mL | Cross-reactivity [1]: <1 | TEF [2]: 0.1

Clc1cc2c(oc3cc(Cl)c(Cl)c(Cl)c32)c(Cl)c1Cl [1,2,3,6,7,8-HxCDF]
IC50 [1]: >0.1 µg/mL | Cross-reactivity [1]: <1 | Cross-reactivity [3]: 36.6% | TEF [2]: 0.1

Clc1cc2c(oc3c(Cl)c(Cl)c(Cl)c(Cl)c32)c(Cl)c1Cl [1,2,3,4,6,7,8-HpCDF]
IC50 [1]: >0.1 µg/mL | Cross-reactivity [1]: <1 | TEF [2]: 0.01

Clc1cc2c(c(Cl)c1Cl)Oc1cc(Cl)c(Cl)c(Cl)c1O2 [1,2,3,6,7,8-HxCDD]
reactivity (cross-reactivity) of the antibody [1]: 93% | IC50 [1]: 0.000984 µg/mL (≈ 0.00252 µM) | Cross-reactivity [1]: 93 | TEF [2]: 0.1

Clc1ccc(-c2cc(Cl)c(Cl)c(Cl)c2)c(Cl)c1 [2′,3,4,4′,5-PeCB]
IC50 [1]: >0.1 µg/mL | Cross-reactivity [1]: <1 | TEF [2]: 0.0001

Clc1cc(-c2cc(Cl)c(Cl)c(Cl)c2Cl)cc(Cl)c1Cl [2,3,3′,4,4′,5,5′-HpCB]
IC50 [1]: >0.1 µg/mL | Cross-reactivity [1]: <1 | TEF [2]: 0.0001

Clc1cc2oc3c(Cl)c(Cl)c(Cl)c(Cl)c3c2c(Cl)c1Cl [1,2,3,4,7,8,9-HpCDF]
reactivity (cross-reactivity) of the antibody [1]: 34% | IC50 [1]: 0.00267 µg/mL (≈ 0.00652 µM) | Cross-reactivity [1]: 34 | TEF [2]: 0.01

Clc1cc2oc3cc(Cl)c(Cl)cc3c2cc1Cl [2,3,7,8-TeCDF]
IC50 [1]: 0.0123 µg/mL (≈ 0.0402 µM) | Cross-reactivity [1]: 7 | TEF [2]: 0.1
